pEC50: −log10 of the molar value. Some results are limits rather than exact numbers.

One experiment deals with human FPR1 (Homo sapiens (Human), UniProt P21462). Description: FPR1 cyclic adenosine monophosphate (cAMP) assay. In kind it is cell-based. The settings on record: CHO cells overexpressing human FPR1; inhibition of forskolin (10 μM) stimulated cAMP; read-out: hFPR1 cAMP EC50. The protocol:
(§1) FPR2 and FPR1 Cyclic Adenosine Monophosphate (cAMP) Assays. A mixture of forskolin (5 μM final for FPR2 or 10 μM final for FPR1) and IBMX (200 μM final) were added to 384-well Proxiplates (Perkin-Elmer) pre-dotted with test compounds in DMSO (1% final) at final concentrations in the range of 0.020 nM to 100 μM. Chinese Hamster Ovary cells (CHO) overexpressing human FPR1 or human FPR2 receptors were cultured in F-12 (Ham's) medium supplemented with 10% qualified FBS, 250 μg/ml zeocin and 300 μg/ml hygromycin (Life Technologies). Reactions were initiated by adding 2,000 human FPR2 cells per well or 4,000 human FPR1 cells per well in Dulbecco's PBS (with calcium and magnesium) (Life Technologies) supplemented with 0.1% BSA (Perkin-Elmer). The reaction mixtures were incubated for 30 min at room temperature. The level of intracellular cAMP was determined using the HTRF HiRange cAMP assay reagent kit (Cisbio) according to manufacturer's instruction. Solutions of cryptate conjugated anti-cAMP and d2 flurorophore-labelled cAMP were made in a supplied lysis buffer separately. Upon completion of the reaction, the cells were lysed with equal volume of the d2-cAMP solution and anti-cAMP solution. After a 1-h room temperature incubation, time-resolved fluorescence intensity was measured using the Envision (Perkin-Elmer) at 400 nm excitation and dual emission at 590 nm and 665 nm. A calibration curve was constructed with an external cAMP standard at concentrations ranging from 1 μM to 0.1 pM by plotting the fluorescent intensity ratio from 665 nm emission to the intensity from the 590 nm emission against cAMP concentrations. The potency and activity of a compound to inhibit cAMP production was then determined by fitting to a 4-parametric logistic equation from a plot of cAMP level versus compound concentrations.

The target in another experiment is human FPR2 (Homo sapiens (Human), UniProt P25090). Description: FPR2 cyclic adenosine monophosphate (cAMP) assay. In kind it is cell-based. As to conditions: CHO cells overexpressing human FPR2; inhibition of forskolin (5 μM) stimulated cAMP; read-out: hFPR2 cAMP2 EC50. How it is done:
as §1, with “After a 1-h room temperature incubation, time-resolved fluorescence intensity was measured using the Envision (Perkin-Elmer) at 400 nm excitation and dual emission at 590 nm and 665 nm. A calibration curve was constructed with an external cAMP standard at concentrations ranging from 1 μM to 0.1 pM by plotting the fluorescent intensity ratio from 665 nm emission to the intensity from the 590 nm emission against cAMP concentrations.” left out

human FPR1, sequence (P21462 whole entry): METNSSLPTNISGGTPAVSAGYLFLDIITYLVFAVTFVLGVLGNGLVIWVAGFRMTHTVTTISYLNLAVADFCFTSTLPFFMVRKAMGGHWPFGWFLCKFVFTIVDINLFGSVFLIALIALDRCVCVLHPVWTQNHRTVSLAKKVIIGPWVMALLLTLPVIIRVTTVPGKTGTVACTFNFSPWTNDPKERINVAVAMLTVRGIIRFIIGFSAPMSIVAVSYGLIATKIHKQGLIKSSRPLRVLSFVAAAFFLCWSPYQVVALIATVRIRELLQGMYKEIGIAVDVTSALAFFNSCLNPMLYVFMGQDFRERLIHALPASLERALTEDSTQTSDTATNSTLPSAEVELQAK
human FPR2, sequence (P25090 whole entry): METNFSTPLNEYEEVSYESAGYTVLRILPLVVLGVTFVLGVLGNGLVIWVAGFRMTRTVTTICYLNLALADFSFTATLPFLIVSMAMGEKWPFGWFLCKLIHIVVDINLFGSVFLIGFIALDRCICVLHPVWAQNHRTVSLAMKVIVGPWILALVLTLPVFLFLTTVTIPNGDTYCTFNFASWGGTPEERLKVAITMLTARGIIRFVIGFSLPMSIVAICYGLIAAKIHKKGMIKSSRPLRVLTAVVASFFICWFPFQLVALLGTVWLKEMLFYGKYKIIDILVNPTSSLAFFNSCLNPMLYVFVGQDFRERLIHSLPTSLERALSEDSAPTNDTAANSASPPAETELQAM

As to `O=C(Nc1ccc(C(F)(F)F)cc1)NC1CCCN(c2ccc(-c3ccccc3)cc2)C1=O` (stereo not shown) [Example 36, 1-(1-([1,1′-biphenyl]-4-yl)-2-oxopiperidin-3-yl)-3-(4-(trifluoromethyl)phenyl)urea], the figures for the pEC50 on human FPR1 and at human FPR2 were 6.55 and 8.01, respectively.

Consider `Cc1ccncc1-c1ccc(N2CCCC(NC(=O)Nc3ccc(C(F)(F)F)cc3)C2=O)cc1` (stereo not shown) [Example 47, 1-(1-(4-(4-methylpyridin-3-yl)phenyl)-2-oxopiperidin-3-yl)-3-(4-(trifluoromethyl)phenyl)urea], for which the pEC50 on human FPR1 is 5.80; at human FPR2 it was 6.48.

Consider `NC(=O)c1ccc(-c2ccc(N3CCCC(NC(=O)Nc4ccc(C(F)(F)F)cc4)C3=O)cc2)cc1` (stereo not shown) [Example 48, 4′-(2-oxo-3-(3-(4-(trifluoromethyl)phenyl)ureido)piperidin-1-yl)-[1,1′-biphenyl]-4-carboxamide], for which the values for the pEC50 on human FPR1 and at human FPR2 were 6.03 and 6.25, respectively.

Regarding `CS(=O)(=O)c1ccc(-c2ccc(N3CCCC(NC(=O)Nc4ccc(C(F)(F)F)cc4)C3=O)cc2)cc1` (stereo not shown) [Example 49, 1-(1-(4′-(methylsulfonyl)-[1,1′-biphenyl]-4-yl)-2-oxopiperidin-3-yl)-3-(4-(trifluoromethyl)phenyl)urea], the values for the negative-log EC50 (pEC50) at human FPR1 and on human FPR2 were 5.68 and 6.07, respectively.

For `O=C(Nc1ccc(C(F)(F)F)cc1)N[C@H]1CCCN(c2ccc(-c3ccccc3CO)cc2)C1=O` [Example 58], the values for the pEC50 on human FPR1 and at human FPR2 were 6.55 and 8.04, respectively.

On to `CS(=O)(=O)Nc1ccccc1-c1ccc(N2CCC[C@@H](NC(=O)Nc3ccc(C(F)(F)F)cc3)C2=O)cc1` [Example 66], for which the figures for the pEC50 at human FPR1 and on human FPR2 were 7.00 and 9.49, respectively.

With `N#Cc1ccccc1-c1ccc(N2CCC[C@@H](NC(=O)Nc3ccc(Cl)cc3)C2=O)cc1` [Example 76], the pEC50 at human FPR1 was 8.00; at human FPR2, 9.09.

On to `O=C(Nc1ccc(Cl)cc1)N[C@@H]1CCCN(c2ccc(-c3ccccc3CO)cc2)C1=O` [Example 77], for which the results for the pEC50 on human FPR1 and on human FPR2 were 8.06 and 9.17, respectively.

Regarding `NC(=O)c1ccccc1-c1ccc(N2CCC[C@@H](NC(=O)Nc3ccc(Cl)cc3)C2=O)c(F)c1` [Example 78], the pEC50 on human FPR1 was 7.38; on human FPR2, 9.05.

With `CS(=O)(=O)Nc1ccccc1-c1ccc(N2CCC[C@@H](NC(=O)Nc3ccc(Cl)cc3)C2=O)cc1` [Example 86], the pEC50 was 7.49 at human FPR1 and 9.85 at human FPR2.

Regarding `O=C(Nc1ccc(C(F)(F)F)cc1)N[C@@H]1CCCN(c2ccc(-c3cccc(F)c3F)cc2)C1=O` [Example 125], the pEC50 is 6.48 at human FPR1 and 8.05 on human FPR2.

As for `CCOc1ncccc1-c1ccc(N2CCC[C@@H](NC(=O)Nc3ccc(C(F)(F)F)cc3)C2=O)cc1` [Example 129], the pEC50 on human FPR1 was 6.77; at human FPR2, 8.03.

In the case of `NC(=O)c1ccccc1-c1ccc(N2CCC[C@@H](NC(=O)Nc3ccc(C(F)(F)F)cc3)C2=O)cc1` [Example 139], the pEC50 was 6.82 at human FPR1 and 8.00 at human FPR2.

With `CN(c1ncccc1-c1ccc(N2CCC[C@@H](NC(=O)Nc3ccc(C(F)(F)F)cc3)C2=O)cc1)S(C)(=O)=O` [Example 145], the pEC50 on human FPR1 is 7.82; on human FPR2 it was 9.44.

As to `O=C(Nc1ccc(C(F)(F)F)cc1)N[C@@H]1CCCN(c2ccc(-c3cncc(N4CCOCC4)c3)cc2)C1=O` [Example 166], the pEC50 is 6.48 at human FPR1 and 8.10 at human FPR2.

`NC(=O)c1ccccc1-c1ccc(N2CCC[C@@H](NC(=O)Nc3ccc(F)cc3)C2=O)cc1` [Example 174]: the pEC50 on human FPR1 was 6.05; at human FPR2, 6.35.

`Cc1ccc(NC(=O)N[C@@H]2CCCN(c3ccc(-c4ccccc4C(N)=O)cc3)C2=O)c(C)c1` [Example 175]: the values for the pEC50 at human FPR1 and at human FPR2 were 5.59 and 6.28, respectively.

Take `COc1ccc(NC(=O)N[C@@H]2CCCN(c3ccc(-c4ccccc4C(N)=O)cc3)C2=O)cc1Cl` [Example 176]: the pEC50 on human FPR1 is 5.92; at human FPR2, 6.11.

With `CC(C)(C)NS(=O)(=O)c1ccccc1-c1ccc(N2CCC[C@@H](NC(=O)Nc3ccc(Cl)cc3)C2=O)cc1` [Example 183], the figures for the pEC50 on human FPR1 and at human FPR2 were 9.25 and 9.34, respectively.

With `CS(=O)(=O)Nc1ccccc1-c1ccc(N2CCC[C@@H](NC(=O)Nc3ccc(C(F)(F)F)cn3)C2=O)cc1` [Example 184], the values for the pEC50 at human FPR1 and on human FPR2 were 5.82 and 8.09, respectively.

For `CS(=O)(=O)Nc1ccccc1-c1ccc(N2CCC[C@@H](NC(=O)Nc3ccc(Cl)cc3F)C2=O)cc1` [Example 188], the pEC50 on human FPR1 is 7.60; at human FPR2 it was 9.89.

For `COc1ccc(NC(=O)N[C@@H]2CCCN(c3ccc(-c4ccccc4NS(C)(=O)=O)cc3)C2=O)c(F)c1` [Example 197], the pEC50 on human FPR1 is 6.66; at human FPR2 it was 9.12.

For the compound `COc1ccc(NC(=O)N[C@@H]2CCCN(c3ccc(-c4ccccc4NS(C)(=O)=O)cc3)C2=O)cc1` [Example 199], the pEC50 on human FPR1 was 6.85; at human FPR2 it was 9.55.

On to `CS(=O)(=O)Nc1ccccc1-c1ccc(N2C[C@H](O)C[C@@H](NC(=O)Nc3ccc(Cl)cc3)C2=O)cc1` [Example 211], for which the pEC50 at human FPR1 is 7.57; at human FPR2 it was 9.46.

On to `CS(=O)(=O)Nc1ccccc1-c1ccc(N2CCC[C@@H](NC(=O)Nc3ccc(C(F)(F)F)cc3F)C2=O)cc1` [Example 212], for which the pEC50 at human FPR1 is 6.92; at human FPR2 it was 9.20.

Turning to `CS(=O)(=O)Nc1ccccc1-c1ccc(N2C[C@H](O)C[C@@H](NC(=O)Nc3ccc(C(F)(F)F)cc3)C2=O)cc1` [Example 213], the pEC50 on human FPR1 was 6.96; on human FPR2, 9.12.

Consider `CS(=O)(=O)Nc1ccccc1-c1ccc(N2C[C@H](O)C[C@H](NC(=O)Nc3ncc(Cl)cc3F)C2=O)cc1` [Example 214], for which the pEC50 at human FPR1 was 6.80; at human FPR2, 8.65.

For `CS(=O)(=O)Nc1ccccc1-c1ccc(N2C[C@H](O)C[C@@H](NC(=O)Nc3ccc(Cl)cn3)C2=O)cc1` [Example 215], the pEC50 on human FPR1 was 6.59; on human FPR2 it was 8.70.

In the case of `COc1cc(-c2ccccc2NS(C)(=O)=O)ccc1N1CCC[C@@H](NC(=O)Nc2ncc(C(F)(F)F)cc2F)C1=O` [Example 255], the pEC50 on human FPR1 is 5.48; on human FPR2 it was 7.77.

On to `COc1cc(-c2ccccc2NS(C)(=O)=O)ccc1N1CCC[C@@H](NC(=O)Nc2ccc(C(F)(F)F)cn2)C1=O` [Example 256], for which the pEC50 at human FPR1 was 5.85; on human FPR2, 7.77.

Consider `CS(=O)(=O)Nc1ccccc1-c1ccc(N2CCC[C@@H](NC(=O)Nc3ccc(OC(F)F)nc3)C2=O)cc1` [Example 257], for which the pEC50 at human FPR1 was 5.46; on human FPR2, 7.77.

As for `Cc1cnc(NC(=O)N[C@@H]2CCCN(c3ccc(-c4ccccc4NS(C)(=O)=O)cc3F)C2=O)cn1` [Example 258], the pEC50 on human FPR1 is less than 5.00; on human FPR2 it was 7.70.

Take `COc1cnc(NC(=O)N[C@@H]2CCCN(c3ccc(-c4ccccc4NS(C)(=O)=O)c(F)c3)C2=O)c(F)c1` [Example 259]: the pEC50 on human FPR1 is 5.70; on human FPR2 it was 7.66.

Turning to `CS(=O)(=O)Nc1ccccc1-c1cc(F)c(N2CCC[C@@H](NC(=O)Nc3ccc(Cl)cc3)C2=O)c(F)c1` [Example 260, (R)—N-(4′-(3-(3-(4-chlorophenyl)ureido)-2-oxopiperidin-1-yl)-3′,5′-difluoro-[1,1′-biphenyl]-2-yl)methanesulfonamide], the figures for the pEC50 at human FPR1 and on human FPR2 were 6.68 and 9.23, respectively.

For `NCc1cccc(-c2ccc(N3CCC[C@@H](NC(=O)Nc4ccc(Cl)cc4)C3=O)cc2)c1F` [Example 276, (R)-1-(1-(3′-(Aminomethyl)-2′-fluoro-[1,1′-biphenyl]-4-yl)-2-oxopiperidin-3-yl)-3-(4-chlorophenyl)urea], the results for the pEC50 at human FPR1 and on human FPR2 were 6.17 and 8.07, respectively.

The values above are taken from patent US11186544B2 (BRISTOL-MYERS SQUIBB COMPANY, priority 2017, dated 2021).
